The term IC50 denotes the concentration needed to halve the response being measured. The EC50 is the concentration that produces a half-maximal response.

From ChEMBL document CHEMBL5614404, “Optimization of potent, broad-spectrum, and specific anti-influenza compounds targeting RNA polymerase PA-PB1 heterodimerization” (Eur J Med Chem, 2024) come the findings set out here.

The target in assay [1] is T1, RNA-directed RNA polymerase (Influenza A virus (strain A/Puerto Rico/8/1934 H1N1), UniProt P03428+P03431+P03433). The experiment in a line: Inhibition of Influenza A virus RdRp transfected in HEK293T cells co-expressing PA/PB1/PB2/NP/firefly luciferase/Renilla luciferase preincubated for 4 hrs followed by medium replacement with compound measured after 20 hrs by minireplicon assay. It is filed as cell-based. (In antiviral work, replicon cells carry a viral genome segment that copies itself.)

The subject of assay [2] is Influenza A virus. Kind of assay: Antiviral activity against Amantadine-resistant Influenza A virus California/07/2009 (H1N1) clinical isolate infected in MDCK cells expressing ST6Gal by crystal violet staining based plaque reduction assay. It is filed as functional, organism-based. Background: Plaque reduction counts the foci of infection that form in a cell layer.
Assay [3] deals with Influenza A virus. The experiment in a line: Antiviral activity against Amantadine/Oseltamivir-resistant Influenza A virus Denmark/528/2009 (H1N1) clinical isolate infected in MDCK cells expressing ST6Gal by crystal violet staining based plaque reduction assay. It is filed as functional, organism-based.
The subject of assay [4] is Influenza A virus. The experiment in a line: Antiviral activity against Oseltamivir-resistant Influenza A virus Parma/24/09 (H1N1) infected in MDCK cells incubated for 48 hrs by plaque reduction assay. It is filed as functional, organism-based.
In assay [5] the target is T1, RNA-directed RNA polymerase. The experiment in a line: Inhibition of Influenza A virus RdRp transfected in HEK293T cells co-expressing PA/PB1/PB2/NP/firefly luciferase/Renilla luciferase assessed as impaired nuclear import preincubated for 4 hrs followed by medium replacement with compound measured after 20 hrs by minireplicon assay. The format is cell-based.
Assay [6] concerns Influenza A virus. The experiment in a line: Antiviral activity against Influenza A virus PR/8/34 infected in human A549 cells assessed as reduction in viral progeny preincubated for 1 hr followed by media replacement with compound measured after 23 hrs by virus yeild reduction assay. To be noted: for EC50: PR/8/34, A549; for Activity: time 24.0 hrs. The format is functional, organism-based.

Assay [7] deals with Influenza A virus. Kind of assay: Antiviral activity against Amantadine-resistant/Oseltamivir-sensitive Influenza A virus WSN/1933 (H1N1) infected in MDCK cells by plaque reduction assay. The format is functional, organism-based.
In assay [8] the test system is Influenza A virus. The experiment in a line: Antiviral activity against Amantadine/Oseltamivir-resistant Influenza A virus North Carolina/39/2009 (H1N1) infected in MDCK cells by plaque reduction assay. The format is functional, organism-based.
The test system of assay [9] is Influenza A virus. The experiment in a line: Antiviral activity against Amantadine-resistant/Oseltamivir-sensitive Influenza A virus California/07/2009 (H1N1) infected in MDCK cells by plaque reduction assay. It is filed as functional, organism-based.
The subject of assay [10] is Influenza A virus. Kind of assay: Antiviral activity against Amantadine/Oseltamivir-resistant Influenza A virus Denmark/528/2009 (H1N1) infected in MDCK cells by plaque reduction assay. It is filed as functional, organism-based.
Assay [11] deals with Influenza A virus. Kind of assay: Antiviral activity against Amantadine-resistant/Oseltamivir-sensitive Influenza A virus Switzerland/9715293/2013 (H3N2) infected in MDCK cells by plaque reduction assay. It is filed as functional, organism-based.
The test system of assay [12] is Influenza A virus. Kind of assay: Antiviral activity against Amantadine/Oseltamivir-resistant Influenza A virus Washington/29/2009 (H1N1) infected in MDCK cells by plaque reduction assay. The format is functional, organism-based.
Another assay deals with Influenza B virus. The experiment in a line: Antiviral activity against Amantadine-resistant/Oseltamivir-sensitive Influenza B virus Wisconsin/01/2010 infected in MDCK cells by plaque reduction assay. It is filed as functional, organism-based. Conditions: Wisconsin/01/2010, MDCK.
The subject of assay [13] is Influenza A virus. Kind of assay: Antiviral activity against Amantadine/Oseltamivir-resistant Influenza A virus Texas/04/2009 (H1N1) infected in MDCK cells by plaque reduction assay. The format is functional, organism-based.

With `O=C(Nc1sc2c(c1C(=O)Nc1nccs1)CCCCC2)c1ccccc1O`, the IC50 in assay [1] turned out to be 330 nM.
Turning to `C[C@@H](c1ccccc1)n1nnnc1[C@H](c1ccsc1)N1CCC(n2c(=O)[nH]c3ccccc32)CC1`, the concentration giving a half-maximal response (EC50) with Influenza A virus [2] and with Influenza A virus [3] was 600 nM throughout.
In the case of `NC(=O)c1ncn([C@@H]2O[C@H](CO)[C@@H](O)[C@H]2O)n1` [RIBAVIRIN], the EC50 with Influenza A virus [4] worked out at 22000 nM; in assay [5], 21700 nM.
As for `O=C(Nc1sc2c(c1C(=O)Nc1ccccc1O)CCCCC2)c1ccc([N+](=O)[O-])cc1O`, the EC50 with Influenza A virus [4] came to 81 nM; in the assay with Influenza A virus [6], 87 nM; in assay [5] it was 130 nM. Besides, the Activity result with Influenza A virus [6] was “Dose-Dependent Effect”.
Consider `O=C(Nc1sc2c(c1C(=O)Nc1ccccn1)CCCCC2)c1ccccc1O`, for which the IC50 in assay [1] came out at 2800 nM.
The same measure, in the same setting: in the case of `O=C(Nc1sc2c(c1C(=O)Nc1ccccn1)CCCCC2)c1ccc([N+](=O)[O-])cc1` it was 270 nM; in that of `O=C(Nc1sc2c(c1C(=O)Nc1ccc(F)cc1)CCCCC2)c1ccccc1O`, 470 nM.
Turning to `O=C1C(c2ncc([N+](=O)[O-])s2)CC[C@@H]2CCCC[C@@H]12` (some centres not stated), the EC50 in the assay on Influenza A virus [7], in the assay with Influenza A virus [8], in the assay on Influenza A virus [9], in the assay with Influenza A virus [10], in the assay on Influenza A virus [11] and with Influenza A virus [12] was 930 nM throughout. In addition, the EC50 with Influenza B virus and in the assay on Influenza A virus [13] was 930 nM each time.
On to `NC(=O)c1nc(F)cnc1O`, for which the concentration for a half-maximal effect (EC50) in the assay with Influenza A virus [6] was 7930 nM.
Take `N#Cc1ccc(C(=O)Nc2sc3c(c2C(=O)Nc2ccc(C(F)(F)F)cc2)CCCCC3)cc1`: the EC50 in assay [5] was over 10000 nM.
For `O=C(Nc1sc2c(c1C(=O)Nc1ccc(Cl)cc1)CCCCC2)c1ccccc1O`, the half-maximal inhibitory concentration (IC50) in [1] was 1000 nM.
Regarding `N#Cc1ccc(C(=O)Nc2sc3c(c2C(=O)Nc2ccccc2O)CCCCC3)cc1`, the EC50 amounted to 280 nM with Influenza A virus [4], 140 nM in the assay on Influenza A virus [6] and 32 nM in [5]. Besides, the Activity entry with Influenza A virus [6] is “Dose-Dependent Effect”.
